Measured values: US20230322779A1 (priority 2020, published 2023)
Like-named read-outs stand apart in the source and are kept apart here.

Columns and labels:
in vitro = conditions: human, A549-hACE2 cells, uninfected
[1] = tested on: SARS-CoV-2 nLUC reporter virus; assay: microbe, parasite or virus in culture; assay type: cell-based; conditions: for antiviral activity against SARS-CoV-2 reporter virus in A549-hACE2 cells: 10 to 0.002 μM
Calu-3 cells = assay: Cell viability by nucleus counting in the Calu-3 dose-response assay; conditions: 0.0025 to 50 μM
[2] = tested on: SARS-CoV-2 (βCoV/KOR/KCDC03/2020); assay: Dose-response curve analysis by immunofluorescence, anti-SARS-CoV-2 activity in Calu-3 cells; assay type: cell-based
SARS-CoV-2 B.1.1.7 = assay: SARS-CoV-2 in primary human bronchial cells at air liquid interface (HAEC-ALI), vRNA of apical wash by RT-qPCR; assay type: cell-based
[3] = Severe acute respiratory syndrome coronavirus 2, 48 h

Row | Compound | CC50 at 48 h (in vitro) [µM] | IC50 [1] [µM] | antiviral activity against SARS-CoV-2 reporter virus in A549-hACE2 cells [1] | IC50 [1, 3] [µM] | toxicity in Calu-3 cells (Calu-3 cells) | antiviral activity against SARS-CoV-2 in Calu-3 cells [2] | inhibition of vRNA in apical wash fluid (SARS-CoV-2 B.1.1.7; 0.37 μM and lower, HAEC-ALI) | inhibition of vRNA in apical wash fluid (SARS-CoV-2 B.1.1.7; 1.1 μM, day 9, HAEC-ALI) | inhibition of vRNA in apical wash fluid (SARS-CoV-2 B.1.1.7; 3 μM, day 4-11, HAEC-ALI) | inhibition of vRNA in apical wash fluid (SARS-CoV-2 B.1.1.7; 10 μM, all timepoints (day 2-11), HAEC-ALI) | antiviral against SARS-CoV-2 (overall, HAEC-ALI) (SARS-CoV-2 B.1.1.7; primary human bronchial cells, air liquid interface) | inhibition of vRNA in apical wash fluid (SARS-CoV-2 B.1.1.7; 3 μM, all timepoints (day 2-11), HAEC-ALI)
1 | FC(F)(F)c1cc(C(F)(F)F)c2ccc3nc(-c4nnco4)cn3c2n1 [Example 1, 2-[2,4-bis(trifluoromethyl)imidazo[1,2-a]1,8-naphthyridin-8-yl]-1,3,4-oxadiazole] | > 10 | 1.71 | has antiviral activity against SARS-CoV-2 reporter virus when used in the μM range | > 1 | Neither compound showed toxicity | activity in the μM range | No inhibition was observed | statistically significant inhibition | statistically significant inhibition | statistically significant inhibition | antiviral against SARS-CoV-2 when used in the μM range | 
2 | FC(F)(F)c1nc(C(F)(F)F)c2ccc3nc(-c4nnco4)cn3c2n1 [Example 9, 2-(2,4-bis(trifluoromethyl)imidazo[1′2′:1,6]pyrido[2,3-d]pyrimidin-8-yl)-1,3,4-oxadiazole] | > 10 |  | has antiviral activity against SARS-CoV-2 reporter virus when used in the μM range | > 1 | Neither compound showed toxicity | activity in the μM range |  |  |  |  |  | 
3 | N#C[C@@]1(c2ccc3c(N)ncnn23)O[C@H](CO)[C@@H](O)[C@H]1O [GS-441524, reference compound] |  |  |  |  |  |  |  |  |  |  |  | statistically significant inhibition
